This assay addresses human A2A adenosine receptor (Homo sapiens (Human), UniProt P29274). The assay is described as follows: A2A binding affinity using radioligand binding, Method (A). The following applies: Method (A): filtration radioligand binding, [3H] SCH58261, membranes expressing human A2A. From the text:
Method (A) describes the procedure used to measure A2A binding affinity using radioligand binding. Method (B) describes the procedure used to measure A2A binding affinity using SPA technology. The method used to measure A2B binding affinity is also described below. The method used to determine the A2A IC50 value reported for each compound in the table is indicated next to the reported value. The A2B IC50 value measured using the A2B binding affinity assay is shown in the table next to the compound under the corresponding A2A value.
The A2A receptor affinity binding assay measured the amount of binding of a tritiated ligand with high affinity for the A2A adenosine receptor to membranes made from HEK293 or CHO cells recombinantly expressing the human A2A adenosine receptor, in the presence of varying concentrations of a compound of the invention. The data were generated using either filtration binding or a homogenous scintillation proximity assay (SPA).
Method (A): Measurement of A2A Binding Affinity Using Radioligand Binding
148 μL (5 μg/mL) membranes (Perkin Elmer, Cat. No. RBHA2aM400UA) and 2 μL compounds of the invention to be tested (test compound) were transferred to individual wells of a 96-well polypropylene assay plate and incubated for 15 to 30 min at room temperature. [^3H] SCH58261 ((7-(2-phenylethyl)-5-amino-2-(2-furyl)-pyrazolo-[4,3-e]-1,2,4-triazolo[1,5-c]pyrimidine)) was diluted in assay buffer (50 mM Tris pH 7.4, 10 mM MgCl2, 0.005% Tween20) to a concentration of 4 nM and 50 μL transferred to each well of the assay plate. To define total and non-specific binding, wells containing 1% DMSO and 1 μM ZM241385 (Tocris Bioscience, Cat. No. 1036) respectively, were also included. The assay plate was incubated at room temperature for 60 min with agitation. Using a FilterMate Harvester® (Perkin Elmer), the contents of the assay plate were filtered through a UniFilter-96® PEI coated plate (Perkin Elmer Cat. No. 6005274 or 6005277). Filtering was achieved by aspirating the contents of the assay plate for 5 sec, then washing and aspirating the contents three times with ice-cooled wash buffer (50 mM Tris-HCl pH 7.4, 150 mM NaCl) and allowing the vacuum manifold to dry the plate for 30 sec. The filter plate was incubated for at least 1 h at 55° C. and allowed to dry. The bottom of the filter plate was sealed with backing tape. 40 μL Ultima Gold™ (Perkin Elmer, Cat. No. 6013329) was added to each well of the filter plate and the top of the plate was sealed with TopSeal-A PLUS® clear plate seal (Perkin Elmer, Cat. No. 6050185). The plate was incubated for at least 20 min, and then the amount of radioactivity remaining in each well was determined using a TopCount® (Perkin Elmer) scintillation counter. After normalization to total and non-specific binding, the percent effect at each compound concentration was calculated. The plot of percent effect versus the log of compound concentration was analyzed electronically using a 4-parameter logistic fit based on the Levenberg-Marquardt algorithm to generate IC50 values.
Sequence of human A2A adenosine receptor (P29274 whole entry): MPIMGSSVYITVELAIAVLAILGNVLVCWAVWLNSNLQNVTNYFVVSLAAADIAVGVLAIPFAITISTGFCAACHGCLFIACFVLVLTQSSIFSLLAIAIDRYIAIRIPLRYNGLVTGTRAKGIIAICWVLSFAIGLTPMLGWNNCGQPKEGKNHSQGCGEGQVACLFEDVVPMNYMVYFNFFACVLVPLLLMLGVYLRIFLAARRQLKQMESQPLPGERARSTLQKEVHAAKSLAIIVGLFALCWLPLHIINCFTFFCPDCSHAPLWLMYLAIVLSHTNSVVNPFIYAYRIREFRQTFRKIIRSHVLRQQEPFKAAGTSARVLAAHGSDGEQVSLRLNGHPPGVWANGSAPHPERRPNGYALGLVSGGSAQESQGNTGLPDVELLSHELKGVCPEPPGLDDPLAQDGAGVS
As a reminder, the IC50 is the concentration at which inhibition is half-maximal. Read a low IC50 as greater potency. For the molecule `COc1cccc2c1nc(N)n1nc(CCC3CCn4c(cnc4C4CC(F)(F)C4)C3)nc21` (single isomer, unassigned) [Example 7.5A, (S or R)-2-(2-(3-(3,3-difluorocyclobutyl)-5,6,7,8-tetrahydroimidazo-[1,5-a]pyridin-7-yl)ethyl)-7-methoxy-[1,2,4]triazolo[1,5-c]-quinazolin-5-amine], the IC50 came to 2.2 nM.

For `COc1cccc2c1nc(N)n1nc(CCC3CCn4c(cnc4C4CC(F)(F)C4)C3)nc21` (single isomer, unassigned) [Example 7.5B, (R or S)-2-(2-(3-(3,3-difluorocyclobutyl)-5,6,7,8-tetrahydroimidazo-[1,5-a]pyridin-7-yl)ethyl)-7-methoxy-[1,2,4]triazolo[1,5-c]-quinazolin-5-amine], the 50% inhibitory concentration (IC50) was determined as 0.5 nM.

For `COc1cc(F)cc2c1nc(N)n1nc(CCC3CCc4c(nnn4C4CC(F)(F)C4)C3)nc21` (single isomer, unassigned) [Example 7.6A, (S or R)-2-(2-(1-(3,3-difluorocyclobutyl)-4,5,6,7-tetrahydro-1H-benzo[d][1,2,3]triazol-5-yl)ethyl)-9-fluoro-7-methoxy-[1,2,4]-triazolo[1,5-c]quinazolin-5-amine], the concentration for half-maximal inhibition (IC50) worked out at 1 nM.

`COc1cc(F)cc2c1nc(N)n1nc(CCC3CCc4c(nnn4C4CC(F)(F)C4)C3)nc21` (single isomer, unassigned) [Example 7.6B, (R or S)-2-(2-(1-(3,3-difluorocyclobutyl)-4,5,6,7-tetrahydro-1H-benzo[d][1,2,3]triazol-5-yl)ethyl)-9-fluoro-7-methoxy-[1,2,4]-triazolo[1,5-c]quinazolin-5-amine] registered an IC50 of 4.2 nM.

In turn, `COc1cc(F)cc2c1nc(N)n1nc(CCC3CCc4c(cnn4C(C)C)C3)nc21` (single isomer, unassigned) [Example 7.7A, (S or R)-9-fluoro-2-(2-(1-isopropyl-4,5,6,7-tetrahydro-1H-indazol-5-yl)ethyl)-7-methoxy-[1,2,4]triazolo[1,5-c]quinazolin-5-amine] came in with an IC50 of 5.5 nM. The IC50 values of the last two molecules are within 1.5-fold of each other.

In turn, `COc1cc(F)cc2c1nc(N)n1nc(CCC3CCc4c(cnn4C(C)C)C3)nc21` (single isomer, unassigned) [Example 7.7B, (R or S)-9-fluoro-2-(2-(1-isopropyl-4,5,6,7-tetrahydro-1H-indazol-5-yl)ethyl)-7-methoxy-[1,2,4]triazolo[1,5-c]quinazolin-5-amine] returned an IC50 of 2.6 nM.

Molecule `COc1cccc2c1nc(N)n1nc(CCC3CCc4c(cnn4C(C)C)C3)nc21` (single isomer, unassigned) [Example 7.8A, (S or R)-2-(2-(1-isopropyl-4,5,6,7-tetrahydro-1H-indazol-5-yl)-ethyl)-7-methoxy-[1,2,4]triazolo[1,5-c]quinazolin-5-amine] showed an IC50 of 2.1 nM. This IC50 and that of the molecule before are within 1.5-fold of each other.

`COc1cccc2c1nc(N)n1nc(CCC3CCc4c(cnn4C(C)C)C3)nc21` (single isomer, unassigned) [Example 7.8B, (R or S)-2-(2-(1-isopropyl-4,5,6,7-tetrahydro-1H-indazol-5-yl)ethyl)-7-methoxy-[1,2,4]triazolo[1,5-c]quinazolin-5-amine] came in with a 50% inhibitory concentration (IC50) of 2.4 nM.

Regarding `COc1cc(F)cc2c1nc(N)n1nc(CC3CC3c3ccc(C(C)(C)N)cc3)nc21` (single isomer, unassigned) [Example 8.4A, 2-(((1S, 2R or 1R,2S)-2-(4-(2-aminopropan-2-yl)phenyl)-cyclopropyl)methyl)-9-fluoro-7-methoxy-[1,2,4]triazolo-[1,5-c]quinazolin-5-amine], the concentration for half-maximal inhibition (IC50) was found to be 10.2 nM.

`COc1cccc2c1nc(N)n1nc(CC3CC3c3ccc(C(C)(C)N)cc3)nc21` (single isomer, unassigned) [Example 8.5A, 2-(((1S,2R or 1R,2S)-2-(4-(2-aminopropan-2-yl)phenyl)-cyclopropyl)methyl)-7-methoxy-[1,2,4]triazolo-[1,5-c]quinazolin-5-amine] gave an IC50 of 4.7 nM.

For the molecule `COc1cccc2c1nc(N)n1nc(CC3CC3c3ccc(C(C)(C)O)cc3)nc21` (single isomer, unassigned) [Example 8.6B, 2-(4-((1R,2S or 1S,2S)-2-((5-amino-7-methoxy-[1,2,4]triazolo-[1,5-c]quinazolin-2-yl)methyl)cyclopropyl)phenyl)propan-2-ol], the half-maximal inhibitory concentration (IC50) amounted to 0.3 nM.

In the case of `CN=S(=O)(CCc1nc2c3cccc(OC)c3nc(N)n2n1)C1CC1` (single isomer, unassigned) [Example 10.3A, (S or R)-(2-(5-amino-7-methoxy-[1,2,4]triazolo[1,5-c]quinazolin-2-yl)ethyl)(cyclopropyl)(methylimino)-l6-sulfanone], the half-maximal inhibitory concentration (IC50) stood at 1.4 nM.

Consider `CN=S(=O)(CCc1nc2c3cccc(OC)c3nc(N)n2n1)C1CC1` (single isomer, unassigned) [Example 10.3B, (R or S)-(2-(5-amino-7-methoxy-[1,2,4]triazolo[1,5-c]quinazolin-2-yl)ethyl)(cyclopropyl)(methylimino)-λ^6-sulfanone], for which the half-maximal inhibitory concentration (IC50) is 3.7 nM.

`COc1cccc2c1nc(N)n1nc(CCS(=N)(=O)C3CC3)nc21` (single isomer, unassigned) [Example 11.1A, (S or R)-(2-(5-amino-7-methoxy-[1,2,4]triazolo[1,5-c]quinazolin-2-yl)ethyl)(cyclopropyl)(imino)-26-sulfanone] displayed an IC50 of 1.2 nM. Against the preceding molecule, the IC50 is about 3.1-fold lower.

Take `COc1cccc2c1nc(N)n1nc(CCS(=N)(=O)C3CC3)nc21` (single isomer, unassigned) [Example 11.1B, (R or S)-(2-(5-amino-7-methoxy-[1,2,4]triazolo[1,5-c]quinazolin-2-yl)ethyl)(cyclopropyl)(imino)-λ^6-sulfanone]: the half-inhibitory concentration (IC50) is 3.4 nM.

`COc1cc(F)cc2c1nc(N)n1nc(CCC3CCn4c(cnc4C4(C(F)(F)F)CC4)C3)nc21` (single isomer, unassigned) [Example 12.3A, (S or R)-9-fluoro-7-methoxy-2-(2-(3-(1-(trifluoromethyl)cyclopropyl)-5,6,7,8-tetrahydroimidazo[1,5-a]pyridin-7-yl)ethyl)-[1,2,4]triazolo[1,5-c]quinazolin-5-amine] gave a concentration for half-maximal inhibition (IC50) of 5.7 nM.

Molecule `COc1cc(F)cc2c1nc(N)n1nc(CCC3CCn4c(cnc4C4(C(F)(F)F)CC4)C3)nc21` (single isomer, unassigned) [Example 12.3B, (R or S)-9-fluoro-7-methoxy-2-(2-(3-(1-(trifluoromethyl)cyclopropyl)-5,6,7,8-tetrahydroimidazo[1,5-a]pyridin-7-yl)ethyl)-[1,2,4]triazolo[1,5-c]quinazolin-5-amine] displayed an IC50 of 6.7 nM.

With `COc1cc(F)cc2c1nc(N)n1nc(CCC3(O)CCc4c(nnn4C4CC(F)(F)C4)C3)nc21` (single isomer, unassigned) [Example 14.3A, (S or R)-5-(2-(5-amino-9-fluoro-7-methoxy-[1,2,4]triazolo[1,5-c]quinazolin-2-yl)ethyl)-1-(3,3-difluorocyclobutyl)-4,5,6,7-tetrahydro-1H-benzo[d][1,2,3]triazol-5-ol], the IC50 stood at 1.1 nM. Compared with the last molecule, the IC50 is about 6.1-fold lower.

Molecule `COc1cc(F)cc2c1nc(N)n1nc(CCC3(O)CCc4c(nnn4C4CC(F)(F)C4)C3)nc21` (single isomer, unassigned) [Example 14.3B, (R or S)-5-(2-(5-amino-9-fluoro-7-methoxy-[1,2,4]triazolo[1,5-c]quinazolin-2-yl)ethyl)-1-(3,3-difluorocyclobutyl)-4,5,6,7-tetrahydro-1H-benzo[d][1,2,3]triazol-5-ol] yielded an IC50 of 3.4 nM.

The molecule `COc1cccc2c1nc(N)n1nc(CC(C)(CO)CO)nc21` [Example 3.2, 2-((5-amino-7-methoxy-[1,2,4]triazolo[1,5-c]quinazolin-2-yl)methyl)-2-methylpropane-1,3-diol] gave an IC50 of 10.9 nM.

Take `CC(C)(N)c1ccc([C@@H]2C[C@H]2Cc2nc3c4cc(F)cc(F)c4nc(N)n3n2)cc1` [Example 8.3A, 2-(((1S,2R)-2-(4-(2-aminopropan-2-yl)phenyl)cyclopropyl)methyl)-7,9-difluoro-[1,2,4]triazolo[1,5-c]quinazolin-5-amine]: the half-maximal inhibitory concentration (IC50) is 38.1 nM. Compared with the last molecule, the IC50 is about 3.5-fold higher.

Values taken from patent US20240076297A1, “ADENOSINE A2A AND A2B RECEPTOR DUAL ANTAGONISTS FOR IMMUNO-ONCOLOGY” (Merck Sharp & Dohme LLC, priority 2020, published 2024).
